Data: patent US20260191793A1, “HBV SPECIFIC EXOSOMES AND USES THEREOF” (priority 2022, published 2026)

Tested on: HBV replication in HepG2/2.2.15 cells
Experiment: Antiviral efficiency of synthetic gRNA/Cas9 RNPs in HepG2/2.2.15 cells (HBsAg/HBeAg ELISA, HBV mRNA and HBV DNA real-time PCR)
Format: cell-based, Hepatitis B virus (HBV)
Design: reduction in HBsAg expression / reduction of HBV mRNA expression: concentration or dose not given beside the values
Conditions: for reduction of HBV mRNA expression: HepG2/2.2.15 cells, real-time PCR, vs gRNAc
Method: The HepG2.2.15 Human Hepatoblastoma cell line (Cat #SCC249, MilliporeSigma, Burlington, MA) is a traditional HBV cellular model that is widely used for studying HBV infection and drug development. HepG2.2.15 cells display constitutive HBV RNA transcription and DNA replication, but a lesser detection of cccDNA by Southern blot and PCR detection. The HepG2/2.2.15 cells were cultured in DMEM (Cat #MT10013CV, Fisher Scientific, Waltham, MA) supplemented with 10% Fetal bovine serum, penicillin, and streptomycin (50 ug/ml each; Fisher Scientific) and maintained at 37° C. and 5% CO2 atmosphere. The Amaxa Cell Line Nucleofector Kit V (Lonza VCA-1003) was used to deliver gRNA/Cas9 into HepG2/2.2.15 cells stably expressing HBV. For each transfection, 160 μM gRNA and 160 μM tracrRNA were first incubated at 37° C. for 30 minutes, followed by adding 80 μM Cas9 protein and incubating at 37° C. for 15 minutes. Approximately 40 μM of the gRNA/Cas9 complex was transfected into HepG2/2.2.15 cells (5×10^5) following the manufacturer's instructions. After 72 hours, the culture supernatants were harvested to measure HBV antigens by ELISA, and the cell pellets were used to determine HBV DNA or mRNA levels by real-time-PCR.
The levels of HBsAg and HBeAg in the supernatants of cell cultures were determined by ELISA (Cat #KA0286 and NBP2-600029, Novus Biologicals, Littleton, CO) according to the manufacturer's protocol. The optical density of antigen levels was measured at 450 nm using a microplate spectrophotometer. The samples were run in triplicate, and the experiments were repeated at least three times.
Total RNA was extracted from the cell pellets by the RNeasy Mini kit (Cat #74104, QIAGEN, Germantown, MD), and 1 μg RNA was converted to cDNA using the Applied Biosystems High-Capacity cDNA Reverse Transcription Kit (Cat #43-688-14, ThermoFisher, Waltham, MA). Quantitative real-time PCR (real-time-qPCR) was performed using iTaq Universal SYBR Green Supermix (Cat #1725124, Bio-Rad, Hercules, CA). The PCR primers were: HBV mRNA forward, 5′-[…]-3′ (SEQ ID NO: 52), reverse, 5′-[…]-3′ (SEQ ID NO: 53); HBV pgRNA forward 5′-[…]-3′ (SEQ ID NO: 54), reverse 5′-[…]-3′ (SEQ ID NO: 55); and GAPDH forward 5′-[…]-3′ (SEQ ID NO: 56), reverse 5′-[…]-3′ (SEQ ID NO: 57). The gene expression levels were determined by the […] method and values were normalized to GAPDH expression as an internal control.
Total and protein-free HBV DNAs were extracted from whole cell lysate using the Hirt DNA method according to a previously published protocol. For HBV cccDNA analysis, the protein-free DNA was treated with 10 units of T5 exonuclease (NEB) at 37° C. for 30 min, followed by 95° C. for 5 min, and diluted 4-fold with nuclease-free water. Next, the cccDNA was cleaned with a DNA clean and concentrator kit (ZYMO Research, Irvine, CA) and used for PCR. HBV total DNA and cccDNA were analyzed by real-time PCR using a TaqMan PCR assay. The primers and probe used to amplify HBV total DNA were: HBV total DNA forward: 5′-[…]-3′ (SEQ ID NO: 58), reverse 5′-[…]-3′ (SEQ ID NO: 59), and internal probe: 5′-FAM-[…]-TAMRA-3′ (SEQ ID NO: 60). The primers and probe used to amplify HBV cccDNA (Genotype D, subtype ayw) were: forward: 5′-[…]-3′ (SEQ ID NO: 61), reverse 5′-[…]-3′ (SEQ ID NO: 62), and internal probe 5′-FAM-[…]-TAMRA-3′ (SEQ ID NO: 63). The PCR reactions were performed in 20 μl volumes and contained 2 μl DNA. The PCR conditions were: 95° C. for 10 min, followed by 45 cycles of 95° C. for 15 s and 64° C. for 30 s. The DNA levels were determined by the […] method and values were normalized to the control group.
Because the hepatoma cell line HepG2/2.2.15 is a traditional HBV cellular model used to test the efficacy and cytotoxicity of anti-HBV drugs, the synthetic gRNA/Cas9 RNPs were tested for their antiviral efficiency in HepG2/2.2.15 cells. […]

| Sequence | reduction in HBsAg expression (HepG2/2.2.15 supernatant, 3 days after nucleofection, ELISA, vs scrambled gRNAc) | reduction of HBV mRNA expression |
| --- | --- | --- |
| GAAGCGAAGTGCACACGGTCNGG (guide GAAGCGAAGUGCACACGGUCNGG; complexed with Cas9 as ribonucleoprotein, chemistry not given here) [gRNA8, tested as synthetic gRNA/Cas9 RNP] | 50% | – |
| GATTGAGACCTTCGTCTGCGNGG (guide GAUUGAGACCUUCGUCUGCGNGG; complexed with Cas9 as ribonucleoprotein, chemistry not given here) [gRNA1, tested as synthetic gRNA/Cas9 RNP] | – | ~ 50% |
| GTCGCAGAAGATCTCAATCTNGG (guide GUCGCAGAAGAUCUCAAUCUNGG; complexed with Cas9 as ribonucleoprotein, chemistry not given here) [gRNA3, tested as synthetic gRNA/Cas9 RNP] | – | ~ 50% |
